This is an account of results in patent publication US8175371B2, “Method for imaging and differential analysis of cells” (Amnis Corporation, priority 2004, dated 2012).

This assay deals with Jurkat cells. Kind of assay: Annexin V / 7-AAD staining of treated Jurkat cells, evaluated by flow cytometry and fluorescence microscopy. It counts as cell-based, Human. As to conditions: Jurkat T cells, Alexa Fluor 488 annexin V and 7-AAD. As for the experimental part:
Human acute T leukemic Jurkat cell line was obtained from ATCC (Rockville, Md.; catalog number CRL-1990) and maintained in RPMI 1640 (Gibco, Grand Island, N.Y.) containing 5% fetal bovine serum, 1 mM sodium pyruvate (Mediatech, Herndon, Va.), 100 µM nonessential amino acids, 100 U/ml penicillin, 100 µg/ml streptomycin, and 2 mM L-glutamine (BioWhittaker, Walkersville, Md.) in 5% CO2 atmosphere at 37 degrees C. The density of exponentially growing cells was less than 3×10^5 cells per ml at the time of all treatments. To induce apoptosis, cells were treated for 18 hours with 1 µM camptothecin (CPT, Sigma), a DNA topoisomerase I inhibitor. […]
Control (untreated) cell, CPT treated (apoptotic) cells, and peroxide treated (necrotic) cells were independently counted and washed once in phosphate buffered saline (PBS, Fair Lawn, N.J.). […] Each cell group was washed in annexin V Binding Buffer, fixed in 2% paraformaldehyde (Sigma), and analyzed as either single populations or as a mixture by flow cytometry and immunofluorescence microscopy.
For flow cytometry, cell fluorescence data excited by a 488 nm laser were acquired using the FACSort™ cytometer (BD Immunocytometry Systems, San Jose, Calif.) and analyzed using CellQuest™ (BD Immunocytometry Systems). […]
On the technique in general: Flow cytometry measures light scatter and fluorescence of single cells or particles in a stream.

For `CC[C@@]1(O)C(=O)OCc2c1cc1n(c2=O)Cc2cc3ccccc3nc2-1` [CPT, camptothecin], the “annexin V / 7-AAD staining of treated cells (apoptosis induction)” value (1 µM CPT for 18 hours, FIG. 2B) is “two populations of cells, those that were annexin V^+ (single positive, SP, or early apoptotic cells), and those that were annexin V^+, 7-AAD^+ (double positive, DP, or late apoptotic cells)”.

With `OO` [peroxide, hydrogen peroxide], the “annexin V / 7-AAD staining of treated cells (necrosis induction)” value (0.3% hydrogen peroxide for 1 hour, FIG. 2C) is “stained positively with both annexin V and 7-AAD”.
